How the values were obtained:
PS = assay: ELISA binding to PS-coated plates; conditions: phospholipid-coated ELISA plates
Experimental: The 3G4 antibody was produced by immunizing mice with autologous, PS-positive endothelial cells, as reported in Ran et al., 2005. The 3G4 antibody was tested for binding to PS in a standard ELISA in the presence and absence of serum, and was initially characterized as being “serum-independent”, i.e., an antibody that binds to PS in the absence of serum.
In a follow-on study, the binding of the 2aG4 antibody to PS was tested in an ELISA in the presence of varying concentrations of human β2GPI.
These included binding to PS in ELISAs, FACS analyses using PS-positive cells and functional assays in the form of an NFAT surrogate ADCC bioassay (Larson et al., 2013).

[1] = test system: previously treated non-squamous NSCLC; conditions: in vivo
Experimental: The primary objective of this study was to compare the ORR (CR+PR) among the treatment arms. Secondary objectives included comparing PFS, DR, OS, safety and PK.
Additional blood draws were performed for these patients during Cycles 1 and 2 at specified time points.
Samples from the NSCLC Phase II trial of Example IX (PPHM 0902) were tested using the functional β2GPI assay of Example XII.

[2] = test system: previously-treated Stage IIIb/IV non-squamous NSCLC; assay: Phase III trial of bavituximab plus docetaxel in NSCLC
Source text: This global, double-blind Phase III trial was initiated in 2012. Selection criteria were for patients with Stage IIIb/IV non-squamous NSCLC who progressed on platinum-doublet chemotherapy (should have progressed on appropriate targeted therapy if known EGFR or ALK mutation), with ECOG PS 0-1 and prior immunotherapy allowed (ECOG is the performance status scale defined by the Eastern Cooperative Oncology Group). […] The primary endpoint was overall survival (OS) and secondary endpoints included objective response rate (Independent Central Review, ICR), progression-free survival (ICR), safety, PK, Quality of Life (LCSS) and exploratory biomarkers, including immune correlates.
OS was analyzed by VeriStrat subgroups using Kaplan-Meier statistical methods.
A single cutoff method was first used to assess the patient β2GPI data.
The initial analyses described above prompted further, extensive analyses of the data in 592 evaluable patients. These analyses used a two cutoff method (Klein & Moeschberger, 2003).
Archival tissue obtained at the time of diagnosis was requested, but not required, in the Phase III trial of Example X. Formalin-fixed paraffin-embedded (FFPE) slides were stained with antibodies for a panel of lymphoid (or tumor) cell markers, as described in Feng et al., 2015: CD3+, CD8+, FoxP3+, PD-L1+, CD163+ and CK+ (cytokeratin, an epithelial carcinoma marker) using a mutliplex (6-plex) quantitative immunohistochemistry (IHC) assay (OPAL®, PerkinElmer, Waltham, Mass., USA) and using DAPI. The PD-L1 antibody used was the rabbit anti-PD-L1 antibody termed E1L3N® XP® (Cell Signaling Technology, (CST), Danvers, Mass., Catalogue #13684; Mahoney et al., 2015). Baseline PD-L1 expression was retrospectively scored on tumor cells (TC, i.e., CK+) and PD-L1 expressing tumor cells were classified according to their percentage within the total number of tumor cells using established assays and classifications (Fehrenbacher et al., 2016), as follows: TC3≥50%; TC2≥5% and ≤50%; TC1≥1% and <5%; and TC0<1%. Cox regression models for PD-L1 IHC subgroup populations were used for correlation with OS.
Kaplan-Meier statistical methods and Cox proportional hazard models were utilized to evaluate and contrast the correlation of peripheral (and intratumoral) IFNγ levels with OS based on a data cut from the Phase III trial (Example X) dated Feb.

[3] = test system: previously untreated stage IV pancreatic cancer; assay: Phase II (PPHM 1002) gemcitabine with or without bavituximab; assay type: in vivo, human; conditions: for median overall survival: at study closure
Experimental: The primary objective was to compare the OS of patients among the treatment arms. Secondary objectives included comparing PFS, ORR, DR and safety.
Gemcitabine (1000 mg/m^2) was given on days 1, 8, and 15 of each 28-day cycle (4 weeks) until disease progression or unacceptable toxicities. A total of 70 patients were enrolled to the study. In general, the patient population had very extensive disease burden, which may have reduced the response in both arms.
The levels of pre-treatment functional β2GPI ranged from 82.5 to 343.2 μg/ml for all patients. For these 31 patients, the mean level of pre-treatment functional β2GPI (219.2 μg/ml) was consistent with the average reported in the literature.

[4] = Phase I dose escalation study of bavituximab monotherapy in refractory advanced solid tumors: PK, safety
Experimental: Samples were collected from patients in the 0.1 and 0.3 mg/kg dose cohorts before the study, on days 0, 1, 2, 4, 7, 10, 14, and every 7 days from days 21 to 70. Samples were collected from patients in the 1 and 3 mg/kg dose cohorts before the study, on days 0, 1, 2, 4, 7, 14, 21, 22, 23, 25, and every 7 days from days 28 to 56.

[5] = test system: previously untreated locally advanced or metastatic non-squamous NSCLC; assay: Phase II (PPHM 1001) paclitaxel/carboplatin with or without bavituximab; assay type: in vivo, human; conditions: functional β2GPI ≥200 μg/mL; bavituximab given with paclitaxel/carboplatin
functional β2GPI = target: T1, functional β2GPI (Homo sapiens, UniProt P02749); assay: Functional β2GPI assay (PS-coated plate, bavituximab-HRP); assay type: binding; conditions: for concentration read out in functional β2GPI assay: recombinant or plasma-derived β2GPI; for Conc. (ng/mL) read out in Functional β2GPI Assay: PS-coated plate, bavituximab-HRP, nicked vs intact β2GPI samples
T1 construct: Samples of β2GPI purified from human plasma and recombinant human β2GPI were both treated with plasmin; from tissue; host or cells: human plasma / serum
T1 sequence (P02749 20-345): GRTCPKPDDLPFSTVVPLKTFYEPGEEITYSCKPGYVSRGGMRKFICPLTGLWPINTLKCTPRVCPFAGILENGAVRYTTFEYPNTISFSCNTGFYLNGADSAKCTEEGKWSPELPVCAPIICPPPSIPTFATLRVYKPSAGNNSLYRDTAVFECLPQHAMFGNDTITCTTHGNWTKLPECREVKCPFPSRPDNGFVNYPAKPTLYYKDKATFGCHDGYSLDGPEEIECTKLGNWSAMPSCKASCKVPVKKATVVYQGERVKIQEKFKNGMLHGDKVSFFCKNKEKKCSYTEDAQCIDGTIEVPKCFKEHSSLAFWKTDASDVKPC
Source text: The following particular materials and equipment were used in the assay to generate the Results presented in this example under Sections B1 and B2. Materials: 96-well medium binding flat bottom plates (Greiner BioOne, cat #655001); 96-well non-binding round bottom plates (Costar, cat #3605); hexane (Sigma, cat #32293); PS antigen (Sigma, cat #P6641); ovalbumin (Sigma, cat #A5503); chromogenic substrate, tetramethylbenzidine (TMB), (KPL, cat #50-76-00); 2M H2SO4 (Fisher, Cat #SA818-4); plate covers (Fisher 015-027-11); adhesive plate sealer (VWR 232701); reagent reservoirs (VistaLab Cat #3054-1000). 1.5 mL microcentrifuge tubes, 50 mL conical tubes and 15 mL conical tubes were also utilized.
The Wash Buffer is IX phosphate-buffered saline (PBS) and the Blocking Buffer is 2% Ovalbumin in IX PBS.
The bavituximab antibody was conjugated to horseradish peroxidase (HRP) to prepare a bavituximab-HRP detection agent for use in the assay. The conjugation was performed using EZ-Link® Plus Activated Peroxidase (Thermo Scientific, Cat #31487) following the procedure for conjugating activated peroxidase to an antibody at pH 7.2 provided by the manufacturer. […] This was added to 1 mg of lyophilized EZ-Link Plus activated peroxidase to reconstitute. Immediately following reconstitution, 10 μL of 5M sodium cyanoborohydride solution was added to the reaction and incubated for 1 hour at room temperature. Once incubation was completed, 20 μL of quenching buffer was added and incubated for 15 minutes at room temperature. Conjugated bavituximab-HRP (1 mg/mL) was stored at 4° C. for up to 4 weeks.
The ELISA plates were coated with the PS antigen as follows: 5 μg/mL PS antigen was prepared and diluted into 6 mL of hexane in a fume hood with the blower off. 50 μL of PS solution was added to each well using a 12-channel pipette. The fume hood blower was turned back on and the hexane allowed to evaporate for 30-45 minutes, typically 30 minutes.
The PS-coated ELISA plates were blocked as follows: 100 mL per plate of the Blocking Buffer (2% Ovalbumin in IX PBS) was prepared. 200 μL of Blocking Buffer was added to each well using a 12-channel pipette.
The β2GPI standards for the positive control were obtained from Haematologic Technologies, Inc. (HTI; cat #B2G1-0001-C; 1.0 mg/ml) in a buffer of 0.2 M Glycine, 0.15 M NaCl, pH 7.4. […]

[6] = 70% of targeted OS events reached
[7] = about 85% of targeted OS events

2aG4: mouse IgG2a chimeric version of the 3G4 antibody
binding to phospholipids in standard ELISA (PS): essentially the same affinity and binding profile as the 3G4 antibody

CC(=O)O[C@@]12CO[C@@H]1C[C@H](O)[C@@]1(C)C(=O)[C@H](O)C3=C(C)[C@@H](OC(=O)[C@H](O)[C@@H](NC(=O)OC(C)(C)C)c4ccccc4)C[C@@](O)([C@@H](OC(=O)c4ccccc4)[C@H]21)C3(C)C [docetaxel, reference compound]
pharmacokinetic drug-drug interaction [1]: exhibited similar pharmacokinetic characteristics with or without the administration of bavituximab | median OS ([2]; 12 months follow-up, about 85% of targeted OS events): 10.9 months | mOS [2, 6]: 10.8 months | median PFS [2, 6]: 3.9 months | mOS ([2]; IFNγ high, no subsequent IO): 9.2 months | mOS ([2]; IFNγ high, received subsequent IO): 13.5 months | mOS ([2]; IFNγ low, no subsequent IO): 10.8 months | mOS ([2]; IFNγ low, received subsequent IO): 12.1 months | mOS ([2]; VS Good patients (VeriStrat)): 11.8 months | mOS ([2]; VS Poor patients (VeriStrat)): 4.7 months | Grade 3 or higher adverse events [2, 7]: 60% | ORR [2, 7]: 11% | PFS [2, 7]: 4.1 months | mOS ([2]; functional β2GPI 200-240 μg/mL): 7.7 months | mOS ([2]; functional β2GPI ≥200 μg/mL, 578 evaluable patients): 9.4 months | mOS ([2]; functional β2GPI ≥200 μg/mL, 592 evaluable patients): 10.1 months | mOS ([2]; functional β2GPI ≥200 μg/mL, with subsequent IO): 12.3 months | mOS ([2]; functional β2GPI ≥200 μg/mL, without subsequent IO): 9.2 months | mOS ([2]; higher PD-L1 expression (TC1/2/3, ≥1%)): 10.4 months | HR, PD-L1 TC0 versus TC1/2/3 within arm ([2]; in vivo): 0.93 | mOS ([2]; negative PD-L1 expression (TC0, <1%)): 11.1 months | mOS ([2]; patients receiving subsequent IO): 12.6 months | mOS ([2]; patients who did not receive subsequent IO): 10.2 months | mOS ([2]; pre-treatment serum IFNγ high (≥ median 0.093 μg/mL)): 10.6 months | mOS ([2]; pre-treatment serum IFNγ low (< median 0.093 μg/mL)): 11.1 months | mOS ([2]; β2GPI less than 200 μg/mL, with subsequent IO): 18.6 months | mOS ([2]; β2GPI less than 200 μg/mL, without subsequent IO): 11.6 months

Nc1ccn([C@@H]2O[C@H](CO)[C@@H](O)C2(F)F)c(=O)n1 [gemcitabine, reference compound]
median overall survival [3]: 5.2 months

Bavi
Bavi ([4]; Cmax at 3 mg/kg expressed as molar concentration): 0.389 µM | Cmax ([4]; bavituximab 3 mg/kg, maximum concentration in blood (Example II; Gerber et al., 2011)): 56.4 µg/mL

bavituximab plus gemcitabine: treatment arm: gemcitabine with weekly 3 mg/kg bavituximab
median overall survival [3]: 5.6 months | TEAE anemia ([3]; in vivo): 35.3% | TEAE fatigue, constipation and anorexia (each) ([3]; in vivo): 32.4% | TEAE nausea ([3]; in vivo): 44.1% | response rate and survival probability at 1 year compared with gemcitabine only ([3]; in vivo): numerically higher response rate and survival probability at 1 year

paclitaxel/carboplatin [reference compound]
mOS [5]: 13.2 months

B1: β2GPI: plasmin-free (intact) β2GPI purified from human plasma or recombinant (protein)
chain: T1 sequence (P02749 20-345)
concentration read out in functional β2GPI assay (functional β2GPI): ~136 ng/mL

B2: Recombinant Plasmin-free β2GPI (protein, UniProt P02749 20-345, looked up)
Beta-2-glycoprotein 1: T1 sequence (P02749 20-345)
modifications: recombinant, plasmin-free
Conc. (ng/mL) read out in Functional β2GPI Assay (functional β2GPI): 136.42 ng/mL

B3: Human Plasmin-free β2GPI (protein, UniProt P02749 20-345, looked up)
Beta-2-glycoprotein 1: T1 sequence (P02749 20-345)
modifications: plasmin-free
Conc. (ng/mL) read out in Functional β2GPI Assay (functional β2GPI): 136.42 ng/mL

B4: plasmin-treated β2GPI: β2GPI treated with plasmin, majority nicked, does not bind PS (protein)
chain: T1 sequence (P02749 20-345)
concentration read out in functional β2GPI assay (functional β2GPI): 33 ng/mL

Reference: US11571459B2, “Methods for treating cancer using PS-targeting antibodies with immuno-oncology agents” (ONCXERNA THERAPEUTICS, INC., priority 2017, dated 2023)
